With COC(=O)C(=C(/C)c1ccc(C(=O)O)cc1)/C(=C\c1cccc(OC)c1)C(=O)Nc1ccnc(C)c1.Cl as the compound, how does the melting point read?
Its melting point is 232 °C (dec.).

From US20040180938A1, “Novel butadiene derivatives, process for preparation of the same and intermediates for the synthesis thereof” (priority 2001, published 2004)
